Measured values taken from paper PMC6119295 (International Journal of Neuropsychopharmacology, 2018).

Experiments:
MOR = MOR (Rattus norvegicus, UniProt P33535); test: Opioid receptor binding, MOR
DOR = DOR (Homo sapiens, UniProt P41143); test: Opioid receptor binding, DOR
C57BL6 mice [1] = details: mouse, in vivo
C57BL6 mice [2] = details: mouse, in vivo; remark: listed apart in the source
dopamine D2 receptor = details: ref Spetea et al., 2012; cited from earlier work
mice = details: cited from earlier work
[3] = up to 10 mg/kg; ref Erli et al. 2017; cited from earlier work
C57BL6 mice [4] = test: Morphine-induced analgesia in a hot plate assay; type: in vivo, mouse; details: dose used in prolactin/rotarod experiments; data not shown
rodents = details: ref Valenza et al., 2017; cited from earlier work
[5] = ref White et al., 2015, cited from earlier work
caudate putamen = details: 3.2 mg/kg, ref Zhang et al., 2005, cited from earlier work

Sequence of MOR (P33535 whole entry): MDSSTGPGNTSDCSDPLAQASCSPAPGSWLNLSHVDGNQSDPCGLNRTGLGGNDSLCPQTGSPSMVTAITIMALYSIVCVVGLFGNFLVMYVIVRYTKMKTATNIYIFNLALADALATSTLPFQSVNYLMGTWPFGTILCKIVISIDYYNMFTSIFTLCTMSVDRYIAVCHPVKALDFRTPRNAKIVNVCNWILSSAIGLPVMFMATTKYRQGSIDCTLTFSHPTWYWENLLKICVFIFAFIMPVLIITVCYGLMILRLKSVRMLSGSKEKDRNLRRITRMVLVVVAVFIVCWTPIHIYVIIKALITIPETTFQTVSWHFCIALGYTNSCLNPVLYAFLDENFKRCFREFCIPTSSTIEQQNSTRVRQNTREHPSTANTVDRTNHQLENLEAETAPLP
Sequence of DOR (P41143 whole entry): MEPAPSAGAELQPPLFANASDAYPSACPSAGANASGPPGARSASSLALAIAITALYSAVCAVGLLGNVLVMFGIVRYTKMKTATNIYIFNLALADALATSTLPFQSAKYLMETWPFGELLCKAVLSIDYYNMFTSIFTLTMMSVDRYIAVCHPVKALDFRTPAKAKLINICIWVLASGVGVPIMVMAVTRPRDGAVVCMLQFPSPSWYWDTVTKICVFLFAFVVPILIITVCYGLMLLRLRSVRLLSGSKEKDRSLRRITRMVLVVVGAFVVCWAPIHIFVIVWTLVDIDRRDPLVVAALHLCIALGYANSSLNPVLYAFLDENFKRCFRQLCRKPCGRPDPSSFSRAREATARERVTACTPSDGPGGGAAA

Oc1cccc(CCN(CCc2ccccc2)CC2CCC2)c1 [MCBPHA, N-methylcyclobutyl-N-phenylethyl-N-3-hydroxyphenylethyl-amine]
Ki (MOR): 270 nM
Ki (DOR): 3000 nM
Effect on serum prolactin after LY2444296 pretreatment (C57BL6 mice [1]): blocked the effect
Rotarod incoordination after LY2444296 pretreatment (C57BL6 mice [2]): blocked
Affinity and agonism at the dopamine D2 receptor (dopamine D2 receptor): low affinity and no agonism
Potency in peripheral analgesia (acetic acid writhing) (mice; mice, ref Spetea et al., 2012): equally potent as the well-characterized KOR agonist U50,488
Efficacy in an analgesia assay in mice (mice; ref Spetea et al. 2012, Erli et al. 2017): efficacy
Locomotor defects in the rotarod assay [3]: neither of these compounds caused locomotor defects

NC(=O)c1ccc(Oc2ccc(CN3CCC[C@H]3c3cccc(F)c3)cc2)c(F)c1 [LY2444296, (S)-3-fluoro-4-(4-((2-(3-fluorophenyl)pyrrolidin-1-yl)methyl)phenoxy)benzamide]
Blockade of U50,488-stimulated prolactin release (C57BL6 mice [1]): blocks the effects
Effect of antagonist alone on serum prolactin (C57BL6 mice [1]): no effect on prolactin
Effect on morphine-induced analgesia in hot plate assay (C57BL6 mice [4]): does not inhibit morphine-induced analgesia
Duration of action (short-acting) (rodents): < 48 h

COC(=O)[C@@H]1C[C@H](OC(=O)CSC#N)C(=O)[C@H]2[C@@]1(C)CC[C@H]1C(=O)O[C@H](c3ccoc3)C[C@]21C [RB-64]
Effect on the rotarod [5]: did not have an effect on the rotarod

COC(=O)[C@@H]1C[C@H](OC(C)=O)C(=O)[C@H]2[C@@]1(C)CC[C@H]1C(=O)O[C@H](c3ccoc3)C[C@]21C [salvinorin A]
Duration of decrease of extracellular dopamine (caudate putamen; after administration): at least 3 hours
Decrease of extracellular dopamine in the caudate putamen (caudate putamen; systemic): over 50%
Time after injection at which rotarod incoordination begins returning to normal ([5]; 3 mg/kg): ≤ 30 min
